Patent publication US9255100B2 (BAYER INTELLECTUAL PROPERTY GMBH, priority 2010, dated 2016)

Molecular target: T1, N-terminally GST-tagged human full length recombinant Mps-1 kinase (Homo sapiens, UniProt P33981)
T1 construct: N-terminally GST-tagged human full length recombinant Mps-1 kinase; purchased Invitrogen, Karslruhe, Germany PV4071
T1 sequence (P33981 1-857): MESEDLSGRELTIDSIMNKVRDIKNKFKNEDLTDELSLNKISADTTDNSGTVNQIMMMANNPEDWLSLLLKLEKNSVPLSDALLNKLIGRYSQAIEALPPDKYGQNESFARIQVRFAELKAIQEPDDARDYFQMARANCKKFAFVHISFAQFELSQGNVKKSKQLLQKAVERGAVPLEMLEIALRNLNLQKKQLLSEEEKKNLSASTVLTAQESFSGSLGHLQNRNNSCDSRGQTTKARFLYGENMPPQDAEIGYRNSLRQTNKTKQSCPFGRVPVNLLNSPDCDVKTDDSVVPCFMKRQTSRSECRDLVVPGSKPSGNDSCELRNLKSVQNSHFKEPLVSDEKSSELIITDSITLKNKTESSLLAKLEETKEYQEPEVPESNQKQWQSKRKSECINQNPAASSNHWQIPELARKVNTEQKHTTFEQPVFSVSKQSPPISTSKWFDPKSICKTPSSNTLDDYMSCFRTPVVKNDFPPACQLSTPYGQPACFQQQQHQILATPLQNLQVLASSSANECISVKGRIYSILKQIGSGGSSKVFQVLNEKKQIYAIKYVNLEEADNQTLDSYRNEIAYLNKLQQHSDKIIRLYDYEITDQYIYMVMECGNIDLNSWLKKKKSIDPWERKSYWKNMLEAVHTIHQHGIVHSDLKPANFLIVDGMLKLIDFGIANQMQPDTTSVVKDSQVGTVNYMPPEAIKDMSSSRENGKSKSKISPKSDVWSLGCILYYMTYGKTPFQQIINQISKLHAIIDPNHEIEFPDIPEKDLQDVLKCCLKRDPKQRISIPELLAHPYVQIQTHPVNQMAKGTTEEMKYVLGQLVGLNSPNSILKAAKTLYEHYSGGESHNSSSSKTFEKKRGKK
Assay: Mps-1 kinase assay (TR-FRET)
Format: biochemical
Conditions: 10 μM ATP, 1 μM peptide substrate, 60 min at 22° C., read-out: Mps1 IC50
Outline: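 Read-out: TR-FRET from Europium-labelled anti-phospho(Ser/Thr) antibody to SA-XLent after 1 h detection incubation at 22° C. Inhibition of kinase activity measured.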

Compound | IC50
Cc1cc(-c2cnc3c(NCC4CC[S+]([O-])CC4)cc(Oc4cccc(F)c4)nn23)ccc1C(=O)NC1CC1 (mixture of isomers) [Example 298B, N-cyclopropyl-4-[6-(3-fluorophenoxy)-8-({[(cis/trans)-1-oxidotetrahydro-2H-thiopyran-4-yl]methyl}amino)imidazo[1,2-b]pyridazin-3-yl]-2-methylbenzamide] | 0.1 nM

Same assay, conditions: Mps1 IC50 [nM], 10 μM ATP, 1 μM peptide substrate, 60 min at 22° C.

IC50 | Compound
0.2 nM | Cc1ccc(Sc2cc(NCC(C)(C)O)c3ncc(-c4ccc(C(=O)NC5CC5)c(C)c4)n3n2)cc1F [Example 66, N-cyclopropyl-4-{6-[(3-fluoro-4-methylphenyl)sulfanyl]-8-[(2-hydroxy-2-methylpropyl)amino]imidazo[1,2-b]pyridazin-3-yl}-2-methylbenzamide]
0.5 nM | Cc1cc(-c2cnc3c(NCC(C)(C)O)cc(Nc4ccc(F)c(F)c4)nn23)ccc1C(=O)NC1CC1 [Example 307, N-cyclopropyl-4-{6-[(3,4-difluorophenyl)amino]-8-[(2-hydroxy-2-methylpropyl)amino]imidazo[1,2-b]pyridazin-3-yl}-2-methylbenzamide]
< 1 nM | Cc1cc(-c2cnc3c(NCC(C)C)cc(-c4cncc(C#N)c4)nn23)ccc1C(=O)NC1CC1 [Example 213, 4-{6-(5-Cyanopyridin-3-yl)-8-(isobutylamino)imidazo[1,2-b]pyridazin-3-yl}-N-cyclopropyl-2-methylbenzamide]
< 1 nM | Cc1cc(-c2cnc3c(NCC(C)C)cc(Sc4ccccc4)nn23)ccc1C(=O)NC1CC1 [Example 197, N-cyclopropyl-2-methyl-4-{8-[(2-methylpropyl)amino]-6-(phenylsulfanyl)imidazo[1,2-b]pyridazin-3-yl}benzamide]
4.3 nM | Cc1cc(-c2cnc3c(NCCC(C)CO)cc(-c4ccccc4CO)nn23)ccc1C(=O)NC1CC1 (racemic) [Example 343, (RS)-N-cyclopropyl-4-{8-[(4-hydroxy-3-methylbutyl)amino]-6-[2-(hydroxymethyl)phenyl]imidazo [1,2-b]pyridazin-3-yl}-2-methyl-benzamide]
< 1 nM | CC(C)CNc1cc(-c2cccc(C(N)=O)c2)nn2c(-c3ccc(C(=O)NC4CC4)cc3)cnc12 [Example 114, 4-{6-(3-Carbamoylphenyl)-8-[(2-methylpropyl)amino]imidazo[1,2-b]pyridazin-3-yl}-N-cyclopropylbenzamide]
< 1 nM | CC(C)CNc1cc(-c2ccc(CO)cc2)nn2c(-c3ccc(C(=O)NC4CC4)cc3)cnc12 [Example 133, N-cyclopropyl-4-{6-[4-(hydroxymethyl)phenyl]-8-[(2-methylpropyl)amino]imidazo[1,2-b]pyridazin-3-yl}benzamide]
3.3 nM | COc1ccccc1-c1cc(NCC(C)C)c2ncc(-c3ccc(C(=O)NC4CC4)cc3)n2n1 [Example 129, N-cyclopropyl-4-{6-(2-methoxyphenyl)-8-[(2-methylpropyl)amino]imidazo[1,2-b]pyridazin-3-yl}benamide]
1.2 nM | Cc1cc(-c2cnc3c(NCCC(F)(F)F)cc(-c4ccccc4CO)nn23)ccc1C(=O)NC1CC1 [Example 20, N-cyclopropyl-4-{6-[2-(hydroxymethyl)phenyl]-8-[(3,3,3-trifluoropropyl)amino]imidazo[1,2-b]pyridazin-3-yl}-2-methylbenzamide]
2 nM | CC(C)CNc1cc(-c2ccc(C(N)=O)cc2)nn2c(-c3ccc(C(=O)NC4CC4)cc3)cnc12 [Example 113, 4-{6-(4-Carbamoylphenyl)-8-[(2-methylpropyl)amino]imidazo[1,2-b]pyridazin-3-yl}-N-cyclopropylbenzamide]
0.1 nM | Cc1cc(-c2cnc3c(NCC(O)CO)cc(Oc4cccc(F)c4)nn23)ccc1C(=O)NC1CC1 (centres unmarked) [Example 491, N-cyclopropyl-4-{8-[(2,3-dihydroxypropyl)amino]-6-(3-fluorophenoxy)imidazo [1,2-b]pyridazin-3-yl}-2-methylbenzamide]
1.2 nM | Cc1cc(Nc2cc(NCC(C)(C)O)c3ncc(-c4ccc(C(=O)NC5CC5)c(C)c4)n3n2)ccc1F [Example 382, N-cyclopropyl-4-{6-[(4-fluoro-3-methylphenyl)amino]-8-[(2-hydroxy-2-methylpropyl)amino]imidazo[1,2-b]pyridazin-3-yl}-2-methylbenzamide]
14.8 nM | Cc1cc(-c2cnc3c(NCC(C)(C)O)cc(-c4c(C)noc4C)nn23)ccc1C(=O)NC1CC1 [Example 159, N-cyclopropyl-4-{6-(3,5-dimethyl-1,2-oxazol-4-yl)-8-[(2-hydroxy-2-methylpropyl)amino]imidazo[1,2-b]pyridazin-3-yl}-2-methylbenzamide]

More lines, now with the values behind:

Compound | IC50
Cc1cc(-c2cnc3c(NCCC(F)(F)F)cc(Oc4ccccc4O)nn23)ccc1C(=O)NC1CC1 [Example 280, N-cyclopropyl-4-{6-(2-hydroxyphenoxy)-8-[(3,3,3-trifluoropropyl)amino]imidazo[1,2-b]pyridazin-3-yl}-2-methylbenzamide] | 0.1 nM
Cc1cc(-c2cnc3c(NC[C@H]4CC[S@@+]([O-])CC4)cc(Oc4cccnc4)nn23)ccc1C(=O)NC1CC1 [Example 296B, N-cyclopropyl-2-methyl-4-[8-({[(cis)-1-oxidotetrahydro-2H-thiopyran-4-yl]methyl}amino)-6-(pyridin-3-yloxy)imidazo[1,2-b]pyridazin-3-yl]benzamide] | 0.5 nM
Cc1cc(-c2cnc3c(NCc4nnn[nH]4)cc(Oc4cccc(F)c4)nn23)ccc1C(=O)NC1CC1 [Example 496, N-cyclopropyl-4-{6-(3-fluoro-phenoxy)-8-[(1H-tetrazol-5-ylmethyl)amino]imidazo[1,2-b]pyridazin-3-yl}-2-methylbenzamide] | 8.9 nM
Cc1cc(-c2cnc3c(NCCC(F)(F)F)cc(Nc4ccc(F)c(O)c4)nn23)ccc1C(=O)NC1CC1 [Example 442, N-cyclopropyl-4-{6-[(4-fluoro-3-hydroxyphenyl)amino]-8-[(3,3,3-trifluoropropyl)amino]imidazo[1,2-b]pyridazin-3-yl}-2-methylbenzamide] | 0.1 nM
Cc1cc(-c2cnc3c(NCC4(CO)COC4)cc(Oc4cccc(F)c4)nn23)ccc1C(=O)NC1CC1 [Example 490, N-cyclopropyl-4-[6-(3-fluoro-phenoxy)-8-({[3-(hydroxymethyl)oxetan-3-yl]methyl}amino)imidazo[1,2-b]pyridazin-3-yl]-2-methylbenzamide] | 1.5 nM
Cc1cc(-c2cnc3c(NCC(C)(C)O)cc(Nc4ccc(CCN)cc4)nn23)ccc1C(=O)NC1CC1 [Example 435, 4-(6-{[4-(2-aminoethyl)phenyl]amino}-8-[(2-hydroxy-2-methylpropyl)amino]imidazo[1,2-b]pyridazin-3-yl)-N-cyclopropyl-2-methylbenzamide] | 1.6 nM
Cc1cc(-c2cnc3c(NCCC(F)(F)F)cc(Nc4ccc(Cl)cc4F)nn23)ccc1C(=O)NC1CC1 [Example 376, 4-{6-[(4-chloro-2-fluorophenyl)amino]-8-[(3,3,3-trifluoropropyl)amino]imidazo[1,2-b]pyridazin-3-yl}-N-cyclopropyl-2-methylbenzamide] | 0.2 nM
c1cc(-c2cc(NC[C@H]3CCCO3)c3ncc(-c4ccc(-c5cnc(C6CC6)[nH]5)cc4)n3n2)ccn1 [Example 5, 3-[4-(2-Cyclopropyl-1H-imidazol-5-yl)phenyl]-6-(pyridin-4-yl)-N-[(2R)-tetrahydrofuran-2-ylmethyl]imidazo[1,2-b]pyridazin-8-amine] | 13.3 nM
Cc1cc(-c2cnc3c(NCCC(F)(F)F)cc(Cc4cccc(Br)c4)nn23)ccc1C(=O)NC1CC1 [Example 485, 4-{6-(3-bromobenzyl)-8-[(3,3,3-trifluoropropyl)amino]imidazo [1,2-b]pyridazin-3-yl}-N-cyclo-propyl-2-methylbenzamide] | 0.4 nM
CNC(=O)c1ccc(-c2cnc3c(NCCN4CCOCC4)cc(Oc4ccccc4C)nn23)cc1C [Example 563, N,2-dimethyl-4-[6-(2-methylphenoxy)-8-{[2-(morpholin-4-yl)ethyl]amino}imidazo[1,2-b]pyridazin-3-yl]benzamide] | 4.3 nM
COc1cc(C(=O)NC2CC2)ccc1-c1cnc2c(NCC(C)(C)O)cc(Sc3ccccc3)nn12 [Example 51A, N-cyclopropyl-4-{8-[(2-hydroxy-2-methylpropyl)amino]-6-(phenylsulfanyl)imidazo[1,2-b]pyridazin-3-yl}-3-methoxybenzamide] | 58 nM
Cc1cc(-c2cnc3c(NCCC(F)(F)F)cc(Oc4cccc5ncccc45)nn23)ccc1C(=O)NC1CC1 [Example 170, N-cyclopropyl-2-methyl-4-{6-(quinolin-5-yloxy)-8-[(3,3,3-trifluoro-propyl)amino]imidazo[1,2-b]pyridazin-3-yl}benzamide] | 0.7 nM
